Measurements as given in article PMC8568920, “Serum apolipoprotein A-I potentiates the therapeutic efficacy of lysocin E against Staphylococcus aureus” (Nature Communications, 2021).
≈ marks a conversion by molar mass, not a printed value. Where two headings read alike, the source gives them in different places.

Columns and labels:
[1] = test system: MRSA; assay: microbe, parasite or virus in culture; details: for MIC: Staphylococcus aureus
Protocol: (§1) The antimicrobial activities of the compounds were measured using the microdilution method. Measurement of the bactericidal activity of lysocin E (0.25 µg ml^−1) and nisin (2 µg ml^−1) with or without ApoA-I was performed according to the National Committee for Clinical Laboratory Standards method. […] For the ∆menA and ∆menB strains, TSB medium was used instead of cation-adjusted-Mueller Hinton broth (CA-MHB) in the microdilution method. Sera and ApoA-I, II were added to the bacterial culture before distributing them into 96-well plates. ApoA-I and ApoA-II antimicrobial activity were evaluated using the RN4220 strain. The protein binding rate of lysocin E against human plasma was determined by a rapid equilibrium dialysis device (Thermo Fisher Scientific, Waltham, MA, USA) according to the manufacturer’s instructions.

[2] = test system: MRSA MR6 strain; assay: Mouse systemic MRSA infection model, survival ED50; assay type: in vivo; details: ICR female mice; MRSA MR6 i.p. 5.7 × 10^7 CFU in mucin; s.c. at 1 h and 6 h after infection; survival after 5 days; 5 animals/group; logistic regression
Protocol: Mouse protocols followed the Regulations for Animal Care and Use of the University of Tokyo under approval by the Graduate School of Pharmaceutical Science at the University of Tokyo (approval nos. 24–55). Mice were housed in a group of at most five in a cage, kept in a room maintained at 23–24 °C, 55% humidity, and 12 h light/12 h dark cycle. For Table 1, clinically isolated MRSA MR6 strain[47] was cultured overnight, suspended in 7% type II porcine stomach mucin supplemented with 0.2 mM FeNH4-citrate and intraperitoneally administered to mice (ICR, female, 4 weeks of age) at 5.7 × 10^7 colony-forming units. Lysocin E (4–0.25 mg kg^−1), vancomycin (8–0.5 mg kg^−1), linezolid (8–0.5 mg kg^−1), or daptomycin (4–0.25 mg kg^−1) were administered subcutaneously to 5 animals/group at 1 h and 6 h after infection. Mouse survival was assessed after 5 days and ED50 values were calculated by multiple logistic regression analysis. For Fig. 1d, the Newman strain was cultured in TSB overnight and cells (4.0 × 10^7 colony-forming units) were washed in phosphate-buffered saline (PBS) were injected into the tail vein of 8–12-week-old female C57BL/6J wild-type mice or Apoa1 homozygous-deficient mice. After 2 h, lysocin E (0.5 mg kg^−1) was administered subcutaneously. After 24 h, the kidneys were harvested and crushed with a BioMasher II (Nippi Incorporated, Tokyo, Japan). The suspensions were diluted with PBS(−), plated on TSB agar medium and the number of colonies was counted.

[3] = cited from earlier work
[4] = test system: S. aureus; assay: Lysocin E antimicrobial activity-enhancing activity (1 unit decreases the MIC of lysocin E to 1 µg ml−1); assay type: cell-based, Staphylococcus aureus; details: ApoA species
Protocol: Calf serum (10 ml) was added to 15 ml EtOH (60% v/v) and the mixture was centrifuged for 15 min. The collected supernatant was evaporated and suspended in 8 ml Milli-Q water (fraction [fr.] II). Fr. II with formic acid (0.1%) was applied to 10 ml of ODS resin (Waters Corporation, Milford, MA, USA). After washing with 25% EtOH and then 50% EtOH, the resin was eluted with 75% EtOH containing 0.1% formic acid. The eluted sample was evaporated and dissolved in 0.8 ml buffer A (10 mM phosphate buffer [pH 7.1], 6 M urea; Fr. III). Fr. III was applied to the Superose 12 10/300 GL gel filtration column (GE Healthcare) and eluted with the AKTApurifier system (GE Healthcare). The elution was performed in buffer A at a flow rate of 0.5 ml min^−1 and 60 fractions (0.5 ml per fr.) were collected in 2-ml tubes. All fractions, except for Fr. I, were dialysed in 10 mM phosphate buffer (pH 7.1) before assessment of their activities. Protein concentrations were measured using Coomassie Plus^TM protein assay reagent (Thermo Fisher) with bovine serum albumin as the standard. Amino acid sequence analysis was performed by in-gel digestion and mass spectrometric analysis. One unit was defined as the activity that decreases the MIC of lysocin E to 1 µg ml^−1.

[5] = test system: S. aureus RN4220; details: for MIC, Control / MIC +rhApoA-I relative to control (fold) / MIC, +rhApoA-I 25µg ml-1: RN4220; for MIC, Control: no rhApoA-I; for MIC +rhApoA-I relative to control (fold) / MIC, +rhApoA-I 25µg ml-1: rhApoA-I 25 µg ml-1
Protocol: as §1

[6] = test system: S. aureus RN4220; assay: Direct antimicrobial activity of ApoA-I and ApoA-II; assay type: cell-based, Staphylococcus aureus; details: up to 300 or 600 µg ml^−1; purified bovine and human proteins
Protocol: as §1

[7] = test system: S. aureus ∆menA strain; assay: MIC by microdilution in TSB; assay type: cell-based, Staphylococcus aureus; details: TSB medium; two independent experiments
Protocol: as §1

[8] = test system: S. aureus ∆menB strain; assay: MIC by microdilution in TSB; assay type: cell-based, Staphylococcus aureus; details: TSB medium; two independent experiments
Protocol: as §1

[9] = target: T1, rhApoA-I (Homo sapiens, UniProt P02647); assay: rhApoA-I pull-down assay (antimicrobial bound to rhApoA-I, UPLC-MS); assay type: binding; design: unit not given here
T1 construct: 1 65 146 160 185 243; made in house; host or cells: E. coli BL21(DE3)/pLysS, pET20b (pET-hApoWT)
Protocol: Menaquinone 4 (MK-4; 100 µl of 1.25 mM) was mixed with N-dodecyl β-D-maltoside (250 µl of 100 mM) in the presence or absence of purified lipid II or lipids (300 µl of 70 µM). Lipid II fraction was prepared from S. aureus RN4220 treated with moenomycin, followed by park nucleotide removal. The mixture was dried in vacuo and dissolved in 2 ml of water. The micelles were then filtered through a 0.45-µm polyvinylidene difluoride membrane filter and a 200 µl aliquot of the filtered micelles were used to evaluate the binding of the antimicrobials in the presence of rhApoA-I. Briefly, 5 µg of antimicrobials was added to the aliquots and the mixture was incubated for 15 min on ice in the presence of 4 µg rhApoA-I. The mixture was then transferred to His-Tag magnetic beads (Dynabeads, Thermo Fisher). The bound protein was then eluted with 250 mM imidazole and then eluted antimicrobials were quantified using an ACQUITY ultra-performance liquid chromatography (UPLC) H-Class PLUS attached to Xevo G2-XS QTof system (Waters Corporation). After injecting the sample into a 2.1 × 100 mm Acquity UPLC HSS T3 1.8 μm column (Waters Corporation) equilibrated with 0.3 mL min^–1 of 30% acetonitrile and 0.1% formic acid in water, the column was developed with a linear gradient to 60% acetonitrile and 0.1% formic acid in water over 10 min. The eluate was continuously applied to a Waters Xevo G2-XS QTof mass spectrometer and the spectra were obtained using MassLynx 4.1 (Waters Corporation) in electrospray ionisation (ESI)-positive mode that was analysed by UNIFI Scientific Information System ver. 1.9 (Waters Corporation).

T1 sequence (P02647 25-267): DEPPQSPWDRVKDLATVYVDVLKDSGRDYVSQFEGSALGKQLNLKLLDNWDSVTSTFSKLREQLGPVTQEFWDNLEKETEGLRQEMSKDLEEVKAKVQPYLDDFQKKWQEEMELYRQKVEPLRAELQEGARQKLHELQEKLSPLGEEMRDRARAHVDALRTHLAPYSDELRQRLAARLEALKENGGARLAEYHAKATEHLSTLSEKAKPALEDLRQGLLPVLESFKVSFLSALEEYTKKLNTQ

CC(=O)NC[C@H]1CN(c2ccc(N3CCOCC3)c(F)c2)C(=O)O1 [Linezolid, linezolid]
MIC ([1]; MRSA, read-out: Antimicrobial activity (MIC)): 2 µg/mL (≈ 5.93 µM) | MIC ([1]; MRSA, read-out: MIC in 10% bovine serum): 2 µg/mL (≈ 5.93 µM) | Therapeutic effect (ED50) [2]: 3.8 mg/kg | Protein binding (%, human plasma) ([3]; human): 18[52] %

hApoA-II: purified human ApoA-II (Calbiochem)
Specific activity for lysocin E antimicrobial enhancing activity [4]: 5900 unit mg-1 protein

CCCCCCCCCC(=O)N[C@@H](Cc1c[nH]c2ccccc12)C(=O)N[C@H](CC(N)=O)C(=O)N[C@@H](CC(=O)O)C(=O)N[C@@H]1C(=O)NCC(=O)N[C@@H](CCCN)C(=O)N[C@@H](CC(=O)O)C(=O)N[C@H](C)C(=O)N[C@@H](CC(=O)O)C(=O)NCC(=O)N[C@H](CO)C(=O)N[C@@H]([C@H](C)CC(=O)O)C(=O)N[C@@H](CC(=O)c2ccccc2N)C(=O)O[C@@H]1C [Daptomycin, daptomycin]
Antimicrobial activity (MIC) [1]: 0.5 µg/mL | MIC in 10% bovine serum [1]: 1 µg/mL (≈ 0.617 µM) | Therapeutic effect (ED50) [2]: 0.73 mg/kg | MIC, Control [5]: 0.5 µg/mL (≈ 0.309 µM) | MIC +rhApoA-I relative to control (fold) [5]: 1/1 | MIC, +rhApoA-I 25µg ml-1 [5]: 0.5 µg/mL (≈ 0.309 µM) | Protein binding (%, human plasma) ([3]; human plasma): 90–96[52] %

ApoA-II: purified bovine and human apolipoprotein A-II
Inhibition of S. aureus growth by the protein alone [6]: did not inhibit S. aureus growth

rhApoA-I: recombinant human ApoA-I
Specific activity for lysocin E antimicrobial enhancing activity [4]: 6500 unit mg-1 protein

nisin (ITSISLCTPGCKTGALMGCNMKTATCHCSIHVSK)
MIC, Control [5]: 8 µg/mL | MIC +rhApoA-I relative to control (fold) [5]: 1/4 | MIC, +rhApoA-I 25µg ml-1 [5]: 2 µg/mL | MIC, Control ([5]; with lipid II 25 µg ml-1): > 32 µg/mL | MIC, +rhApoA-I 25µg ml-1 ([5]; with lipid II 25 µg ml-1): > 32 µg/mL | Antimicrobial activity (MIC), WT ([5]; wild-type RN4220, TSB medium, two independent experiments): 16 | Antimicrobial activity (MIC), ∆menA [7]: 16 | Antimicrobial activity (MIC), ∆menB [8]: 16 | Nisin binding to rhApoA-I (pull-down) ([9]; CL, replicate 1): 0.284 | Nisin binding to rhApoA-I (pull-down) ([9]; CL, replicate 2): 0.1757 | Nisin binding to rhApoA-I (pull-down) ([9]; CL, replicate 3): 0.257 | Nisin binding to rhApoA-I (pull-down) ([9]; LTA, replicate 1): 0.1611 | Nisin binding to rhApoA-I (pull-down) ([9]; LTA, replicate 2): 0.2119 | Nisin binding to rhApoA-I (pull-down) ([9]; LTA, replicate 3): 0.3298 | Nisin binding to rhApoA-I (pull-down) ([9]; Lipid II, replicate 1): 1.947 | Nisin binding to rhApoA-I (pull-down) ([9]; Lipid II, replicate 2): 4.556 | Nisin binding to rhApoA-I (pull-down) ([9]; Lipid II, replicate 3): 3.824 | Nisin binding to rhApoA-I (pull-down) ([9]; PG, replicate 1): 0.4181 | Nisin binding to rhApoA-I (pull-down) ([9]; PG, replicate 2): 0.2568 | Nisin binding to rhApoA-I (pull-down) ([9]; PG, replicate 3): 0.2266 | Nisin binding to rhApoA-I (pull-down) ([9]; Vehicle (no lipid added), replicate 1): 0.2456 | Nisin binding to rhApoA-I (pull-down) ([9]; Vehicle (no lipid added), replicate 2): 0.223 | Nisin binding to rhApoA-I (pull-down) ([9]; Vehicle (no lipid added), replicate 3): 0.2718

CN[C@H](CC(C)C)C(=O)N[C@H]1C(=O)N[C@@H](CC(N)=O)C(=O)N[C@H]2C(=O)N[C@H]3C(=O)N[C@H](C(=O)N[C@H](C(=O)O)c4cc(O)cc(O)c4-c4cc3ccc4O)[C@H](O)c3ccc(c(Cl)c3)Oc3cc2cc(c3O[C@@H]2O[C@H](CO)[C@@H](O)[C@H](O)[C@H]2O[C@H]2C[C@](C)(N)[C@H](O)[C@H](C)O2)Oc2ccc(cc2Cl)[C@H]1O [Vancomycin, vancomycin]
MIC in 10% bovine serum ([1]; MRSA, 10% bovine serum in medium): 1 µg/mL (≈ 0.69 µM) | Antimicrobial activity (MIC) ([1]; MRSA, microdilution, no serum): 1 µg/mL | Therapeutic effect (ED50) [2]: 4.2 mg/kg | MIC, Control [5]: 1 µg/mL (≈ 0.69 µM) | MIC +rhApoA-I relative to control (fold) [5]: 1/1 | MIC, +rhApoA-I 25µg ml-1 [5]: 1 µg/mL (≈ 0.69 µM) | Protein binding (%, human plasma) ([3]; human plasma): 10–50[51] %

ApoA-I: purified bovine and human apolipoprotein A-I
Inhibition of S. aureus growth by the protein alone [6]: did not inhibit S. aureus growth
